Consider five compounds from patent EP1714639A1, “Cosmetic compositions containing piperazine derivatives” (L'ORÉAL, priority 2005, dated 2006).

Molecules are shown by their SMILES.

Experiment [1] relates to cellules musculaires striées humaines. The experiment in a line: nerve-muscle co-culture test (inhibition of muscle fibre contractions). The format is cell-based. The conditions noted are these: for inhibition at 10 µM / inhibition at 100 µM: 60 s incubation, contractions counted over 30 s, triplicate, read-out: % d'inhibition des contractions. From the text: Les composés des Exemples 1 et 2 ont été testés sur un modèle de co-culture nerfs-muscles qui permet de recréer un arc moteur en innervant des cellules musculaires striées humaines avec des explants de moelle épinière et de ganglions rachidiens d'embryons de rat.
Des cellules musculaires humaines, issues de prélèvements de muscles striés de donneur sain, sont ensemencées dans des puits de 1,8 cm^2 de section (boîtes de culture de 24 puits). Après 10 jours de culture, ces cellules forment une monocouche et fusionnent. A ce stade, des explants de moelle épinière d'embryons de rat de 13 jours contenant les ganglions rachidiens sont déposées sur la culture.
La croissance des neurites est visible en dehors de l'explant de moelle épinière après un jour de culture. Les premières contractions des fibres musculaires sont observées après 5 à 6 jours de co-culture et après 3 semaines, toutes les fibres musculaires au voisinage des explants se contractent.
Le co-cultures sont utilisées après 21 jours, quand les fibres musculaires sont striées et possèdent des jonctions neuromusculaires différenciées matures.
Une fibre musculaire ayant des contractions régulières (au moins 60 contractions par minute) est alors sélectionnée dans trois puits de culture différents et le nombre de contractions est comptabilisé sur 30 secondes. Les composés testés, dilués dans le DMSO, sont ensuite incubés pendant 60 secondes dans ces puits, à la concentration de 10 µM pour le composé de l'Exemple 1 et de 10 et 100 µM pour le composé de l'Exemple 2. A la fin de l'incubation, le nombre de contractions est à nouveau comptabilisé sur 30 secondes. Le test est réalisé en triplicata.

Experiment [2] concerns canaux calciques de type L. The experiment in a line: binding test on L-type calcium channels ([3H](-) D 888 displacement, verapamil site). More on the design: species or system rat. The conditions noted are these: for % inhibition de la liaison: 1 µM in DMSO, [3H](-) D 888 0.5 nM, rat cerebral cortex homogenates, 60 min/22°C. Here is the method:
On a évalué la capacité des composés des Exemples 1, 4 et 5 (à 1 µM dans le DMSO) à inhiber par compétition la fixation d'[…] de canaux calciques de type L.
Les études sont réalisées à partir d'homogénats de cortex cérébral de rat (membranes isolées présentant à leur surface des canaux calciques de type L) selon la méthode décrite par Reynolds I.J. et al., 1986, J. Pharmacol. Exp. Ther., 237, p.731.
Les conditions expérimentales sont les suivantes :
D888 qui est le [^3H](-) desmethoxyverapamil sert de ligand spécifique radiomarqué et D600 qui est le chlorhydrate de (±)méthoxyvérapamil sert de molécule de référence.
La liaison spécifique d'un ligand (D888 marqué) aux récepteurs (canaux calciques de type L, site vérapamil) est définie comme la différence entre la liaison totale et la liaison non spécifique déterminée en présence d'un excès de ligand froid (non radioactif). Les résultats sont exprimés en pourcentage d'inhibition de la liaison spécifique du témoin en présence du composé testé.

Experiment [3] is described as follows: anti-wrinkle activity in vivo.

In general, inhibition refers to the percentage by which the read-out fell short of the control.

As for `C(=Cc1ccccc1)CN1CCN(CCCc2ccccc2)CC1` [compound 1, 1-(3-phenyl-2-propenyl)-4-(3-phenylpropyl)-piperazine], in experiment [1], the inhibition at 10 µM came out at 65% and the inhibition at 100 µM came out at 100%. For the same compound, the “% inhibition de la liaison” value in experiment [2] turned out to be 30%.
In the case of `c1ccc(CCCN2CCN(CCc3ccccc3)CC2)cc1` [compound 2, 1-(2-phenylethyl)-4-(3-phenylpropyl)-piperazine], in experiment [1], the inhibition at 10 µM was 50% and the inhibition at 100 µM was 100%. In addition, in experiment [2] (similar test, concentration 50 µM), the “inhibition de la liaison spécifique du témoin aux canaux calciques” value turned out to be 50%.
Turning to `OCCCN1CCN(CCCc2ccccc2)CC1` [compound 4, 1-(3-hydroxpropyl) 4-(3-phenylpropyl)-piperazine], in experiment [2], the “% inhibition de la liaison” value came out at 22%.
As for `CCN1CCN(CCCc2ccccc2)CC1` [compound 5, 1-ethyl 4-(3-phenylpropyl)-piperazine], the “% inhibition de la liaison” value in experiment [2] turned out to be 16%.
Consider `CN1C(=O)CN=C(c2ccccc2)c2cc(Cl)ccc21` [diazépam, reference compound], for which the “contractions des fibres musculaires” value in experiment [1] (earlier finding of the applicant in this model) is given as “inhibait les contractions des fibres musculaires”. For the same compound, the activité anti-rides entry in experiment [3] is “démontrée in vivo”.
